According to US11851445B2, “Compounds and uses thereof” (Foghorn Therapeutics Inc., priority 2020, dated 2023):

Tests used:
[1] = Interconversion between Enantiomer 1 and Enantiomer 2 in cell medium, chiral LC/MS-MS; assay type: physicochemical; details: 0.2 μM, 37° C.
Procedure: For the assessment of interconversion between Enantiomer 1 and Enantiomer 2 in cell medium, the following test was performed. […] At designated time point, aliquot (50 μL) was taken and processed by the addition of 150 μL of acetonitrile containing 0.1% formic acid and internal standard for LC/MS-MS analysis. Peak areas of both Enantiomer 1 and Enantiomer 2 were determined for each sample using a chiral specific analytical method.

BRD9 [2] = molecular target: T1, BRD9 (Homo sapiens, UniProt Q9H8M2); assay: BRD9 degradation in ASKA cells, western blot dose response; assay type: cell-based; parameters: degradation endogenous BRD9 protein in two synovial sarcoma cell lines; endogenous in cells; host or cells: ASKA synovial sarcoma cells; details: for DC50: read-out: Fitted DC50
T1 sequence (Q9H8M2 1-597): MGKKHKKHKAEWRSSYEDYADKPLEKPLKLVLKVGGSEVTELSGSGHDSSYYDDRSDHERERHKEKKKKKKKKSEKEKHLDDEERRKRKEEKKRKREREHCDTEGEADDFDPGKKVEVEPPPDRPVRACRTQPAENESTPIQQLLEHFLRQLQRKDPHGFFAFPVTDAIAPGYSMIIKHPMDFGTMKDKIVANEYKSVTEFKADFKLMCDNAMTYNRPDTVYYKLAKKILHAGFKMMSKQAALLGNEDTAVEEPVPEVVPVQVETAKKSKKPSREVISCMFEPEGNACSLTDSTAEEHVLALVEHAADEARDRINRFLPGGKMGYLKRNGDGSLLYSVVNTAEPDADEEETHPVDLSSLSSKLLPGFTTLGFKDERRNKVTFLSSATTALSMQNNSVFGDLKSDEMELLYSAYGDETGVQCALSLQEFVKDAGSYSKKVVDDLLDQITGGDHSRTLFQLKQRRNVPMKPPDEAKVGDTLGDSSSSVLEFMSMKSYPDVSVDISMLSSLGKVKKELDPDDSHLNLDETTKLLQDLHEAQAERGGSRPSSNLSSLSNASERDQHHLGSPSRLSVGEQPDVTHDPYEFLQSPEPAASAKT
Procedure: Method. […] Cells were then harvested, washed with cold PBS, and frozen in cell pellets at −80° C. Lysates were prepared by resuspending thawed pellets in 1×RIPA Lysis and Extraction buffer (Thermo Fisher, Cat #89900) with 1× Halt™ Protease and Phosphatase Inhibitor Cocktail, EDTA-free (Thermo Fisher, Cat #78441) and 1:1000 dilution Pierce™ Universal Nuclease for Cell Lysis 25ku (Thermo Fisher, Cat #88700). Lysates were incubated on ice for 10 minutes and then centrifuged in 4° C. at maximum speed (15,000 rpm) for 10 minutes. Samples were then analyzed for total protein using BCA protein quantification assay and diluted to 1 μg/μL with lysis buffer and 1× NuPAGE™ LDS Sample Buffer (4×) (Thermo Fisher, Cat #NP0007) and 1×DTT from 30× stock (Cell Signaling Technologies, Cat #14265S). Samples with 20-25 ug of total protein were loaded into 4-12% Bis-Tris Mini-Gel with 1×MES Running buffer and run at 150V for 45 minutes. Gels were transferred using Trans-Blot® Turbo™ Transfer System (semi-dry) at 25V for 10 minutes (High MW setting) on nitrocellulose blots. Blots were blocked in 5% milk in TBST for 1 hour and probed with BRD9 antibody (Bethyl Labs, Cat #A303-781A, 1:750 for SYO1, and Cell Signaling Technologies, Cat #71232S for ASKA) and beta-Actin antibody (Cell Signaling Technologies, Cat #3700, 1:2000) overnight at 4° C. The next day, blots were washed in TBST 3× and probed with 1:5000 IRDye® 680LT Goat anti-Rabbit IgG Secondary Antibody (LiCOR, Cat #926-68021) and 1:10000 IRDye® 800CW Goat anti-Mouse IgG Secondary Antibody (LiCOR, Cat #926-32210) in LiCOR Odyssey® Blocking Buffer (TBS) for 1 hour at room temperature. Blots were washed in TBST 3× and scanned at […] wavelength using LiCOR Odyssey® CLx Imaging System. Western blot signal was quantified using same analyses program included in the same machine. BRD9 signal was quantified by normalizing to beta-actin signal and all samples were normalized to DMSO, set as 100% signal.

BRD9 [3] = molecular target: T1, BRD9; assay: BRD9 degradation in SYO-1 cells, western blot dose response; assay type: cell-based; parameters: degradation endogenous BRD9 protein in two synovial sarcoma cell lines; endogenous in cells; host or cells: SYO1 (SYO-1) synovial sarcoma cells; details: for DC50: read-out: Fitted DC50
Procedure: Method. Synoial sarcoma cells were plated in 6-well plate at 500-100 k cells/well and treated with serial concentrations of BRD9 degrader (10 nM top concentration, diluted 1:3) the next day for two time points at 37° C. Cells were then harvested, washed with cold PBS, and frozen in cell pellets at −80° C. Lysates were prepared by resuspending thawed pellets in 1×RIPA Lysis and Extraction buffer (Thermo Fisher, Cat #89900) with 1× Halt™ Protease and Phosphatase Inhibitor Cocktail, EDTA-free (Thermo Fisher, Cat #78441) and 1:1000 dilution Pierce™ Universal Nuclease for Cell Lysis 25ku (Thermo Fisher, Cat #88700). Lysates were incubated on ice for 10 minutes and then centrifuged in 4° C. at maximum speed (15,000 rpm) for 10 minutes. Samples were then analyzed for total protein using BCA protein quantification assay and diluted to 1 μg/μL with lysis buffer and 1× NuPAGE™ LDS Sample Buffer (4×) (Thermo Fisher, Cat #NP0007) and 1×DTT from 30× stock (Cell Signaling Technologies, Cat #14265S). Samples with 20-25 ug of total protein were loaded into 4-12% Bis-Tris Mini-Gel with 1×MES Running buffer and run at 150V for 45 minutes. Gels were transferred using Trans-Blot® Turbo™ Transfer System (semi-dry) at 25V for 10 minutes (High MW setting) on nitrocellulose blots. Blots were blocked in 5% milk in TBST for 1 hour and probed with BRD9 antibody (Bethyl Labs, Cat #A303-781A, 1:750 for SYO1, and Cell Signaling Technologies, Cat #71232S for ASKA) and beta-Actin antibody (Cell Signaling Technologies, Cat #3700, 1:2000) overnight at 4° C. The next day, blots were washed in TBST 3× and probed with 1:5000 IRDye® 680LT Goat anti-Rabbit IgG Secondary Antibody (LiCOR, Cat #926-68021) and 1:10000 IRDye® 800CW Goat anti-Mouse IgG Secondary Antibody (LiCOR, Cat #926-32210) in LiCOR Odyssey® Blocking Buffer (TBS) for 1 hour at room temperature. Blots were washed in TBST 3× and scanned at […] wavelength using LiCOR Odyssey® CLx Imaging System. Western blot signal was quantified using same analyses program included in the same machine. BRD9 signal was quantified by normalizing to beta-actin signal and all samples were normalized to DMSO, set as 100% signal.

BRD9 [4] = molecular target: T1, BRD9; assay: Pharmacodynamic BRD9 level in SYO-1 xenograft tumors, western blot (Example 14); assay type: in vivo; parameters: degradation endogenous BRD9 protein in two synovial sarcoma cell lines; endogenous in cells; host or cells: SYO1 (SYO-1) synovial sarcoma cells; details: for pharmacodynamic activity assessed by BRD9 protein level: BALB/c Nude mice, i.v. single dose, FIG. 23; for BRD9 protein degradation in tumor: single dose, tumors up to 72 hours
[5] = system: synovial sarcoma cell lines (SYO1, Yamato, HS-SY-II, and ASKA); assay: Growth of synovial sarcoma cell lines (Example 2: confluency, crystal violet, colonies); assay type: cell-based; details: FIGS. 4, 5, 6
Procedure: (§1) Cells were treated with DMSO or the BRD9 degrader, Compound 1, at indicated concentrations, and proliferation was monitored from day 7 to day 14 by measuring confluency over time using an IncuCyte live cell analysis system (FIG. 4). Growth medium and compounds were refreshed every 3-4 days.
(§2) Cells were seeded into 12-well plates and treated with DMSO, 1 μM BRD9 inhibitor, Compound 2 (also known as BI-7273, see Martin et al, J Med Chem. 59(10):4462-4475 (2016); see structure of compound 2 below), or 1 μM BRD9 degrader, Compound 1.
(§3) The number of cells was optimized for each cell line. Growth medium and compounds were refreshed every 3-5 days. SYO1, Yamato, A549, 293T and HS-SY-II cells were fixed and stained at day 11. ASKA cells were fixed and stained at day 23. Staining was done by incubation with crystal violet solution (0.5 g Crystal Violet, 27 ml 37% Formaldehyde, 100 mL 10×PBS, 10 mL Methanol, 863 dH20 to 1 L) for 30 min followed by 3× washes with water and drying the plates for at least 24 h at room temperature. Subsequently plates were scanned on an Odyssey CLx Imaging system (FIG. 5).
(§4) Cells were seeded into 96-well ultra-low cluster plate (Costar, #7007) in 200 μL complete media and treated at day 2 with DMSO, Staurosporin, or BRD9 degrader, Compound 1, at indicated doses (FIG. 2C). Media and compounds were changed every 5 d and cell colonies were imaged at day 14.

[6] = system: non-synovial control cancer cell lines (293T, A549, G401); assay: Growth of non-synovial control cancer cell lines (Example 2); assay type: cell-based; details: FIGS. 4, 5, 6
Procedure: as §1, §2, §3, §4

[7] = system: synovial sarcoma cell lines (SYO1, HS-SY-II, and ASKA); assay: Growth of synovial sarcoma cell lines, crystal violet, day 14 (Example 3); assay type: cell-based; details: SYO1, HS-SY-II, ASKA; day 14; FIG. 7
Procedure: (§5) Procedure: Cells were seeded into 6-well or 12-well plates and were treated daily with a BRD9 degrader (Compound 1), a bromo-domain BRD9 binder (Compound 2), E3 ligase binder (lenalidomide), DMSO, or staurosporin (positive control for cell killing), at indicated concentrations. The number of cells was optimized for each cell line. Growth media was refreshed every 5 days. By day 14, medium was removed, cells were washed with PBS, and stained using 500 μL of 0.005% (w/v) crystal violet solution in 25% (v/v) methanol for at least 1 hour at room temperature. Subsequently plates were scanned on an Odyssey CLx Imaging system.

[8] = system: non-synovial control cancer cell lines (RD, HCT116, and Calu6); assay: Growth of non-synovial control cancer cell lines, crystal violet, day 14 (Example 3); assay type: cell-based; details: FIG. 8
Procedure: as §5

## COc1cc(-c2cn(C)c(=O)c3cnc(N4CCC4)cc23)cc(OC)c1CN1CCC(CN2CCC3(CC2)CN(c2ccc4c(c2)C(=O)N(C2CCC(=O)NC2=O)C4)C3)CC1 (single isomer, unassigned; enantiomer 1) [Enantiomer 1]
[1]; Enantiomer 1 Dosing, 0 h
  Mean peak area ratio of Enantiomer 2 over Enantiomer 1 peak area ratio: 0.0
[1]; Enantiomer 1 Dosing, 0.5 h
  Mean peak area ratio of Enantiomer 2 over Enantiomer 1 peak area ratio: 0.0
[1]; Enantiomer 1 Dosing, 2 h
  % Enantiomer 2: 12%
  Mean peak area ratio of Enantiomer 2 over Enantiomer 1 peak area ratio: 0.13
[1]; Enantiomer 1 Dosing, 6 h
  % Enantiomer 2: 30%
  Mean peak area ratio of Enantiomer 2 over Enantiomer 1 peak area ratio: 0.43
BRD9 [2]; 0.5 h
  DC50: > 10 nM
BRD9 [2]; 30 minutes, up to 10 μM
  BRD9 degradation activity: no discernable activity
BRD9 [2]; 2 h
  DC50: 0.38 nM
BRD9 [3]; SYO-1, 1 h
  DC50: 2.8 nM
BRD9 [3]; SYO-1, 6 h
  DC50: 0.066 nM
BRD9 [4]
  pharmacodynamic activity assessed by BRD9 protein level: inactive
  BRD9 protein degradation in tumor: did not degrade BRD9 protein

## COc1cc(-c2cn(C)c(=O)c3cnc(N4CCC4)cc23)cc(OC)c1CN1CCC(CN2CCC3(CC2)CN(c2ccc4c(c2)C(=O)N(C2CCC(=O)NC2=O)C4)C3)CC1 (single isomer, unassigned; enantiomer 2) [Enantiomer 2]
[1]; Enantiomer 2 Dosing, 0 h
  % Enantiomer 2: 99%
  Mean peak area ratio of Enantiomer 1 over Enantiomer 2 peak area ratio: 0.01
[1]; Enantiomer 2 Dosing, 0.5 h
  % Enantiomer 2: 95%
  Mean peak area ratio of Enantiomer 1 over Enantiomer 2 peak area ratio: 0.06
[1]; Enantiomer 2 Dosing, 2 h
  % Enantiomer 2: 82%
  Mean peak area ratio of Enantiomer 1 over Enantiomer 2 peak area ratio: 0.22
[1]; Enantiomer 2 Dosing, 6 h
  % Enantiomer 2: 63%
  Mean peak area ratio of Enantiomer 1 over Enantiomer 2 peak area ratio: 0.60
BRD9 [2]; 0.5 h
  DC50: 0.34 nM
BRD9 [2]; 2 h
  difference in DC50 between Enantiomer 1 and Enantiomer 2: about 32 fold
  DC50: 0.012 nM
BRD9 [3]; SYO1, 6 h
  difference in DC50 between Enantiomer 1 and Enantiomer 2: ca. 3 fold
BRD9 [3]; SYO-1, 1 or 6 hours, FIGS. 16 and 17
  BRD9 degradation compared with racemic compound D1: slightly better than its racemic parent compound D1
BRD9 [3]; SYO-1, 1 h
  DC50: 0.092 nM
BRD9 [3]; SYO-1, 6 h
  DC50: 0.023 nM
BRD9 [4]
  potency compared with racemic compound D1: equipotent to racemic compound D1
  pharmacodynamic activity assessed by BRD9 protein level: significant activity
  BRD9 protein degradation in tumor: degraded BRD9 up to 72 hours after a single dose

## COc1cc(-c2cn(C)c(=O)c3cnccc23)cc(OC)c1CN(C)C [Compound 2, BI-7273]
[5]
  growth of the cells: inhibition of the growth of the cells
[6]
  growth of the cells: does not result in inhibition of the growth
[7]
  growth of the cells: inhibition of the growth of the cells
[8]
  growth of the cells: did not result in inhibition of the growth
